Measured values reported in patent publication US10548911B2, “Small molecule anti-scarring agents” (UNIVERSITY OF ROCHESTER, priority 2014, dated 2020).
Entries after “also recorded” stand apart in the source; their conditions may differ.

How the values were obtained:
[1] = system: primary mouse lung fibroblasts; experiment: TGFβ-induced myofibroblast formation, αSMA Western blot, primary mouse lung fibroblasts; type: cell-based; settings: HCPT 50 nM to 500 nM
Method: Salinomycin and alexidine served as positive controls for anti-fibrotic activity. Western blots were performed using cell lysates from the fibroblasts exposed to TGFβ to assess TGFβ-dependent αSMA expression.

[2] = system: primary human orbital fibroblasts; experiment: TGFβ-induced myofibroblast formation, αSMA Western blot, primary human orbital fibroblasts; settings: HCPT 50 nM to 500 nM, TGFβ
Method: Total protein was isolated from 0.5-2×10^6 cells and lysed in 60 mM Tris, pH 6.8, 2% SDS containing 1× protease inhibitor cocktail (Sigma, St. Louis, Mo.). The lysates were passed through a 26 gauge needle 5-6 times to shear genomic DNA. Protein concentrations were determined using the detergent compatible protein assay (BioRad). Total protein (1-10 ug per lane) was subjected to SDS-PAGE. Protein gels were transferred to PVDF membrane (Millipore) and probed with antibodies as specified. Western blot band intensities were quantified using ImageLab software (BioRad). Protein expression was normalized to β-tubulin levels.
Primary human orbital fibroblasts, primary human lung fibroblasts, and primary mouse lung fibroblasts were treated with TGFβ and HCPT (50 nM, 500 nM, and 5000 nM) or SNC (500 nM) or AXD (0.5 μM, 5 μM, and 50 μM) to assess the ability of HCPT to inhibit myofibroblast formation. […] Western blots were performed using cell lysates from the fibroblasts exposed to TGFβ to assess TGFβ-dependent αSMA expression.
Primary human orbital fibroblasts were treated with TGFβ and either 6-formylindolo(3,2-b)carbazole (“FICZ”, 1 μM), Omeprazole (“Ome”, 2 μM, 10 μM, 50 μM, 100 μM, 250 μM, 500 μM), or Flutamide (“Flut”, 2 μM, 10 μM, 50 μM, 100 μM, 250 μM, 500 μM) to assess their ability to inhibit myofibroblast formation. […] Western blots were performed using cell lysates from the fibroblasts exposed to TGFβ to assess TGFβ-dependent αSMA expression. Densitometry analyses of the Western blots were also performed.

[3] = system: primary human lung fibroblasts; experiment: TGFβ-induced myofibroblast formation, αSMA Western blot and cell images, primary human lung fibroblasts; type: cell-based
Method: Human lung fibroblasts were treated with various concentrations of 10-hydroxycamptothecin (HCPT) (50 nM or 500 nM) and induced to form scar-forming myofibroblasts by treating with TGFβ.

## CC[C@@]1(O)C(=O)OCc2c1cc1n(c2=O)Cc2cc3cc(O)ccc3nc2-1 [HCPT, 10-hydroxycamptothecin]
[1]
  myofibroblast formation (relative αSMA expression): less effective in blocking myofibroblast formation; also recorded: potently blocks myofibroblast formation
[2]
  myofibroblast formation (relative αSMA expression): potently blocks myofibroblast formation; also recorded: dose-dependent inhibition of αSMA
[3]; HCPT 50 nM or 500 nM
  overt toxicity (cell images): without being overtly toxic; also recorded: with out being overtly toxic
[3]; HCPT 50 nM or 500 nM, TGFβ
  formation of myofibroblasts (cell images): not in samples treated with HCPT or SNC; also recorded: not in samples with HCPT or salinomycin (SNC)
[3]; HCPT 50 nM to 500 nM, TGFβ
  myofibroblast formation (relative αSMA expression): potently blocks myofibroblast formation; also recorded: dose-dependent inhibition of αSMA
